Tested on: TM4SF5-non-expressing cells (SNU449Cp)
Assay: Western blotting for signaling factor phosphorylation in TM4SF5-non-expressing cells
Type: cell-based, human
Procedure: Cell extracts were obtained from cells grown to a density of 70-80% without any treatment, or from cells treated with vehicle DMSO or drugs at the given concentrations for 24 hours. For the extract of hepatocytes or liver cancer cells, a lysis buffer (150 mM NaCl, 1% NP-40, 50 mM Tris-HCl, 0.25% sodium deoxycholate, pH 7.4) including a protease inhibitor cocktail (GenDEPOT) was used. In addition, after washing animal liver tissue twice with PBS, SDS, Na3VO4, and protease inhibitor cocktails (GenDEPOT) were added to a lysis buffer [50 mM Tris-HCl, pH 7.4, 1% NP40, 0.25% sodium deoxycholate, 150 mM NaCl, 1 mM EDTA (based on 500 ml)], followed by treatment at 4°C for 15 minutes. After centrifugation at 13,000 rpm at 4°C for 30 minutes, only the supernatant was transferred to a new microcentrifuge tube. After quantification using BCA reagent (Thermo Scientific), a 4 × sample buffer [100% glycerol 4 ml, Tris-HCl, pH 6.8, 2.4 ml, SDS 0.8 g, Bromophenol blue 4 mg, betamercaptoethanol 0.4 ml, H2O 3.1 ml (based on 10 ml)] was added, followed by boiling at 100°C for 5 minutes. After performing SDS-PAGE electrophoresis with the above samples and transferring them to Nitrocellulose Membranes Protran™ nitrocellulose membranes (Whatman), pre-treatment was performed with 5% skim milk for 1 hour. After pre-treatment, primary antibodies of p-FAK(Y861) (SC-16663), p-FAK(Y577) (SC-16665), c-Src (SC-8056), STAT3 (SC-8019), p-AKT 1/2/3(S473) (SC-7985), STATS (SC-835), Laminin γ2 (SC-393225), COL1A1 (SC-28657), CCL5(RANTES) (SC-514019) CCL20(MIP-3α) (SC-517441), SIRT1 (SC-74465), ChREBP (SC-515922), SREBP1 (SC-366513), DGAT1 (SC-271934), DGAT2 (SC-293211), MICA/B (SC-137242), SLAMF7 (SC-390840), α-tublin (SC-5286), β-actin (SC-47778), FUCA (SC-365496) (the above from Santa Cruz Biotech, USA), p-FAK(Y397) (cat # 611723), FAK (cat # 610088), p27 (cat # 610242) (the above from BD Transduction, USA), p-FAK(Y925) (#3284) p-c-Src(Y416) (#2101), p-STAT3(Y705) (#9145), p70S6K1 (#9202), p-p70S6K1(T389) (#9205), p-STAT5(Y694) (#9314), ACC (#3676), FASN (#3189), CPT1A (#12252), p-ACC(S79) (#11818), HA (#3724), PD-L1 (#13684), PD-1 (#86163), p-ERK1/2(T202/Y204) (#9101s), ERK1/2 (#9102s) (the above from Cell Signaling Tech., USA), pS10p27(S10) (ab62364), human SLAMF6 (ab224201), TIGIT (ab233404), CD34 (ab81289) (the above from Abcam, UK), mouse SLAMF6 (PA5-87823), NKG2D (PA5-102038) (the above from Thermofisher, USA), α-SMA (Sigma Aldrich, A5228), CCL2 (Invitrogen, MA5-17040), and CD155(PVR) (Biolegend, 337601), HA (Biolegend, USA), Strep-HRP(horse-radish peroxidase), StrepMAB-HRP (IBA, USA), AFP (FineTest, FNab00203) were reacted at 4°C for 15 hours. The next day, secondary antibodies were reacted, and development was performed on X-ray film using ECL (Pierce, USA). Anti-TM4SF5C-ter (epitope region of RKKQDTPH^197) and anti-TM4SF5EC2 (CLMNGEWGYHFEDTAGA^130) were custom-made at a professional antibody production company (Pro-Sci, Poway, CA, USA).
(a) Cell extracts were obtained after treating TM4SF5-non-expressing cells (SNU449Cp) and TM4SF5-expressing cells (SNU449T7) with vehicle (DMSO), ST-2-001, or an ST-2-001-based derivative drug at a concentration of 5 µM for 24 hours. (b) Cell extracts were obtained after treating SNU449Cp and SNU449T7 with DMSO, ST-2-001, ST-3-001, ST-3-006, ST-3-007, ST-3-010, or ST-3-011 at a concentration of 5 µM for 24 hours. (c) Cell extracts were obtained after treating SNU449Cp and SNU449T7 with DMSO, ST-2-001, ST-3-006, or ST-3-011 at the given concentrations for 24 hours. (a-c) Using the cell extracts obtained after the drug treatment, Western blotting was performed for signaling factors whose phosphorylation and activity increase in a TM4SF5-expression dependent manner.

[1] = given concentrations, 24 hours (FIG. 9c)
[2] = 5 µM, 24 hours (FIG. 9a-b, blue-lined boxes)

Structure (SMILES)	phosphorylation of some signaling factors [1]	phosphorylation of some signaling factors [2]
COc1ccc(-c2cc(-c3ccc(NC(C)=O)cc3)no2)cc1 [ST-2-001, N-(4-(5-(4-methoxyphenyl)isoxazole-3-yl)phenyl)acetamide]	increased	–
CC(=O)Nc1ccc(-c2cc(-c3ccc(F)cc3)on2)cc1 [ST-3-006, N-(4-(5-(4-fluorophenyl)isoxazole-3-yl)phenyl)acetamide]	increased	increased
COc1ccc(-c2cc(-c3cccc(NC(C)=O)c3)no2)cc1 [ST-3-011, N-(3-(5-(4-methoxyphenyl)isoxazole-3-yl)phenyl)acetamide]	increased	increased

From patent publication EP4772500A1, “NOVEL ISOXAZOLE COMPOUND AS TM4SF5-SPECIFIC INHIBITOR AND USE THEREOF” (Seoul National University R&DB Foundation, priority 2023, dated 2025)
